For 4 molecules, IC50 results are on record in patent US8080566B1, “Carbazole inhibitors of histamine receptors for the treatment of disease” (Kalypsys, Inc, priority 2008, dated 2011).

SMILES strings stand for the structures.

For assay [1], the target named is human histamine receptor type 1 (Homo sapiens, UniProt P35367). In words: In vitro histamine receptor cell-based assay, H1R antagonist (aequorin bioluminescence). To be noted: CHO-K1 cells expressing human H1 receptor and aequorin; histamine at EC80. An excerpt:
(§1) In Vitro Histamine Receptor Cell-Based Assays
(§2) The assays are based on an aequorin dependent bioluminescence signal, generated by receptor signaling through Gq/11 or a similarly acting G protein and a resulting transient calcium flux. Doubly-transfected, stable CHO-K1 cell lines expressing human histamine receptor type 1 or type 4, mitochondrion-targeted aequorin, and (histamine type 4 receptor only) human G protein Gα16 are obtained from Perkin-Elmer (Histamine H1 cell line, catalog ES-390-A; Histamine H4 cell line, catalog ES-393-A). Cells are maintained on conventional culture plasticware in F12 (Ham's) growth medium containing 10% (vol./vol.) fetal bovine serum, penicillin (100 IU/ml), streptomycin (0.1 mg/ml), zeocin (0.25 mg/ml) and geneticin (0.40 mg/ml), as per the manufacturer's instructions (all components from Invitrogen, Inc.). One day prior to assay, the growth medium is replaced with the same, excluding zeocin and geneticin.
(§3) To prepare cells for a histamine receptor assay, growth medium is aspirated, and the cells are rinsed with calcium-free, magnesium-free phosphate-buffered saline. The rinse is aspirated and replaced with Versene (Invitrogen, Inc.) and the cells incubated for two to three minutes at 37° C., followed by tapping the plate to fully dislodge cells. Assay medium (DMEM:F12 [50:50], phenol-red free, containing 1 mg/ml protease-free bovine serum albumin) is added to collect the cells, which are then transferred to a conical tube for centrifugation. The cell pellet is re-suspended in assay medium, and the cell density is determined by counting with a hemacytometer. The cells are then centrifuged again and re-suspended in assay medium to a final density of 5×10^6 cells/ml. Coelenterazine-h dye (500 μM in ethanol) is then added to a final concentration of 5 μM, and mixed immediately. The conical tube containing the cells is then wrapped with foil to protect the light sensitive dye. The cells are incubated for four hours further at normal room temperature (approximately 21° C.) with vertical rotation to keep them in suspension.
(§4) Just before assay, the dye-loaded cells are diluted to 0.75×10^6 cells/ml (H1 receptor) or 1.5×10^6 cells/ml (H4 receptor) with additional assay medium. Cells are dispensed to 1536 well microtiter plates at 3 μl/well. To assay receptor antagonist activity, […] of 100× concentration test compounds in dimethyl sulfoxide (DMSO) are dispensed to the wells, one compound per well, by passive pin transfer, and the plates are incubated for 15 minutes at room temperature. Assay plates are then transferred to a Lumilux (Perkin-Elmer) bioluminescence plate reader equipped with an automated 1536 well disposable tip pipette. The pipette then dispenses 3 μl/well of agonist (histamine, at twice the final concentration, where final concentration is a previously determined EC80 for response), with concurrent bioluminescence detection.
(§5) CCD imaging capture on the Lumilux instrument includes a 5 second baseline read prior to agonist addition, generally with a 40 second complete read per plate. A decrease in bioluminescence signal (measured either as area-under-the-curve, or maximum signal amplitude minus minimum signal amplitude) correlates with receptor antagonism. Negative control activity is measured with DMSO lacking any test compound. For receptor antagonist assays, positive control activity is measured with diphenhydramine (2-Diphenylmethoxy-N,N-dimethylethylamine, 10 μM final concentration, H1 receptor) or JNJ7777120 (1-[(5-Chloro-1H-indol-2-yl)carbonyl]-4-methyl-piperazine, 10 μM final concentration, H4 receptor). For receptor agonist assays, positive activity is measured with histamine (10 μM final concentration). Efficacy is measured as a percentage of positive control activity.

For assay [2], the target named is human histamine receptor type 4 (Homo sapiens, UniProt Q9H3N8). Kind of assay: In vitro histamine receptor cell-based assay, H4R antagonist (aequorin bioluminescence). As to conditions: CHO-K1 cells expressing human H4 receptor, aequorin and Gα16; histamine at EC80.
Chain of human histamine receptor type 4 (Q9H3N8 whole entry): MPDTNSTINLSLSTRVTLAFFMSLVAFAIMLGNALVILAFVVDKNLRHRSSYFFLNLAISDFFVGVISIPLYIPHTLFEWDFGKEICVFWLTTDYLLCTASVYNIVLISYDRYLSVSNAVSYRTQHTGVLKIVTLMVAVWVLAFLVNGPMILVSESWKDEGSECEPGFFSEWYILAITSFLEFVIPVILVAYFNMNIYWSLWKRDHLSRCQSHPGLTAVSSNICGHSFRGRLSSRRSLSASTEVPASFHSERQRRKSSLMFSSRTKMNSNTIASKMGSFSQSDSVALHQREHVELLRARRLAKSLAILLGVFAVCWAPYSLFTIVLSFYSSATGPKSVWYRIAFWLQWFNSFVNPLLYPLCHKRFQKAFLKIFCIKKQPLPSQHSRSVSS
Excerpt: as §1, §2, §3, §4, §5

Chain of human histamine receptor type 1 (P35367 whole entry): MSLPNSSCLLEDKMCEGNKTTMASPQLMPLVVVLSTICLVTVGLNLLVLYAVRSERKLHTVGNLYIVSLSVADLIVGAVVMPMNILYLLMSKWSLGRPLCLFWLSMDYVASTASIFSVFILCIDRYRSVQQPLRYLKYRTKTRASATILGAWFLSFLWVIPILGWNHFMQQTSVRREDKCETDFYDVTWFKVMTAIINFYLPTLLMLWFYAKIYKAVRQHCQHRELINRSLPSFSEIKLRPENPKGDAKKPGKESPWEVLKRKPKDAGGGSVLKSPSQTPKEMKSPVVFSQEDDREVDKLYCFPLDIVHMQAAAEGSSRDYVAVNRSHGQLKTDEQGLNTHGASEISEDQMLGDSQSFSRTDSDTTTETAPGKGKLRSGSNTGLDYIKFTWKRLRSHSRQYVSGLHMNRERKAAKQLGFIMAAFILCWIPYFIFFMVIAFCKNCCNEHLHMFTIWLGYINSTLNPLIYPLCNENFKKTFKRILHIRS

Regarding `CCn1c2ccccc2c2c(CN3CCCC(c4ccn[nH]4)C3)cccc21` (centres unmarked) [Example 31, 4-((3-(1H-pyrazol-5-yl)piperidin-1-yl)methyl)-9-ethyl-9H-carbazole], the IC50 in assay [1] stood at 14.8 µM; in assay [2], 18.4 µM.
As to `CCn1c2ccccc2c2c(CN3CCN(C)CC3)cccc21` [Example 32, 9-ethyl-4-((4-methylpiperazin-1-yl)methyl)-9H-carbazole], the half-maximal inhibitory concentration (IC50) in assay [1] is over 30 µM; in assay [2] it was 21.9 µM.
For `CCn1c2ccccc2c2cccc(CN3CCN(C)CC3)c21` [Example 33, 9-ethyl-1-((4-methylpiperazin-1-yl)methyl)-9H-carbazole] the same measures were 19 µM and 9.64 µM.
Take `CCn1c2ccccc2c2ccc(CN3CCN(C)CC3)cc21` [Example 34, 9-ethyl-2-((4-methylpiperazin-1-yl)methyl)-9H-carbazole]: the IC50 in assay [1] was determined as 35.4 µM; in assay [2], 8.55 µM.
